Entries after “also recorded” stand apart in the source; their conditions may differ. Where two headings read alike, the source gives them in different places.
What was measured:
G93A-SOD1 mice [1] = assay: G93A-SOD1 mouse ALS model, NDGA i.p.: rotorod and survival; assay type: in vivo
Procedure: More subtle defects in motor performance are measured using a rotorod device. The animals are placed on a horizontal rod set to spin about its long axis, initially at 1 rpm. The revolution rate is increased at a constant rate of 1 rpm every 10 sec and the experiment continues until the animal falls off the rod. In contrast to mice bearing mutant SOD1 transgenes, animals bearing the wild-type human SOD1 transgenes display healthy motor function.
The G93A-SOD1 mice were used to test for in vivo efficacy of a benchmark tethered bis(polyhydroxyphenyl) compound, nordihydroguaiaretic acid (NDGA). In one experiment, 10 G93A-SOD1 animals were trained to the rotorod task at 85 days of age. At 90 days of age, animals were divided into two groups of 5 animals each. One group was injected intraperitoneally with NDGA (10 mg/kg, 5 days/week, in 95% saline/5% DMSO vehicle). The control group received vehicle only. Animals were tested on the rotorod device every 5 days subsequently.
Initially, rotorod performance characteristics improve in all mice as the animals become acquainted with the apparatus. At 100 days animals obtain peak performance (FIG. 3A). At timepoints subsequent to 100 day, animals decline in motor performance. In order to control for differences in initial strength amongst the 10 animals, all data subsequent to the 100 day timepoint was expressed as a percentage relative to the peak performance at 100 day (FIGS. 3B and 3C). […] When the data in FIG. 3B were assessed using repeated measures analysis of variance (ANOVA), a significant age X treatment effect was observed (p<0.005). At the 120D timepoint, the statistical assessment by Student's t-test indicates p<0.08 between drug and vehicle groups (i.e. 92% probability of a protective drug effect).
The potency of NDGA in vitro inspired further study in vivo. Two separate studies were performed. In the first experiment, 10 G93A-SOD1 mice were randomized into groups receiving 10 mg/kg NDGA i.p. or vehicle alone, beginning at 90 D of age. […] Rotarod performance tests were conducted at 5 D intervals. […] The median lifespan of the five NDGA-treated animals was 127 D, as compared to 121 D for the control group, representing a 20% extension of lifespan after the start of treatment.
In a separate experiment, NDGA was administered intraperitoneally to a small group of G93A-SOD1 mice (5 control and 5 drug-treated animals; 10 mg/kg 5 days/week beginning at 90 D). In this paradigm, NDGA also extended survival although logrank statistics were not formally significant (median lifespan after start of treatment=31 D in control animals and 37 D in NDGA-treated animals; p=0.074 by logrank test). […] The i.p. administration of NDGA was somewhat affected by the inclusion of DMSO in vehicle; G93A-SOD1 mice receiving DMSO alone died approximately 10 D sooner than normally would be expected from these animals. Taken together, the data strongly indicate a positive effect of NDGA on the prognosis of disease in rapidly-progressing G93A-SOD1 mice.

G93A-SOD1 mice [2] = system: G93A-SOD1 mice
Procedure: NDGA was formulated into AIN93G laboratory mouse chow at 2500 ppm (approximately […] intake/mouse/day). […] G93A-SOD1 mice and nontransgenic littermates were fed this NDGA-containing diet, or a control diet, beginning at 90 D of age. An observer blinded to the treatment groups tested the animals on the rotarod task at 100 D and every 5 days thereafter. […] This is a very important point, as most forms of human ALS are sporadic and prophylactic treatment is not practical.

Water solubility = assay type: physicochemical
G93A-SOD1 mice [3] = assay: Immunochemistry of lumbar spinal cord of G93A-SOD1 mice on oral NDGA (GFAP, F4/80); assay type: in vivo, mouse
Procedure: Mice were anesthetized with pentobarbital and perfused transcardially with 4% paraformaldehyde in phosphate buffer. The lumbar region (L1-L5) was processed for paraffin embedding. Immunochemistry was performed on […] sections, using commercially available antibodies, and tissue sections were routinely counterstained with hematoxylin and eosin. Polyclonal anti-SOD1 IgG was purchased from Chemicon (Temecula, Calif.). Polyclonal anti-5LOX IgG was purchased from Cayman Chemical (San Diego, Calif.). Monoclonal anti-5LOX was obtained from Transduction Laboratories (Lexington, Ky.). Polyclonal antibody against glial fibrillary acidic protein (GFAP) was purchased from Research Diagnostics International (Flanders, N.J.). FITC-conjugated anti-F4/80, which recognizes a microglial cell surface antigen (Drachman et al., 2002), was purchased from Serotec (Raleigh, N.C.). Positive control for 5LOX Western blots was SL-29 fibroblast lysate (Transduction Laboratories, provided with the antibody). Electrophoresis was performed on 4-20% gradient polyacrylamide gels, and bands were visualized with chemiluminescence detection reagents (Amersham).
Microglial proliferation is another neuroinflammatory feature inherent to motoneuron disease in the G93A-SOD1 mouse (Drachman et al., 2002). […]

rats = settings: rat, in vivo, po; cited from earlier work
Aβ-induced neurotoxicity = assay: Rat model of Aβ-induced neurotoxicity (ICV Aβ40 + Aβ42 + ApoE4), radial eight-arm maze; assay type: in vivo, Sprague-Dawley male rats; settings: 0.25% NDGA diet
Excerpt: In this model, rats are infused intracerebroventricularly (ICV) with Aβ adsorbed to an apo-lipoprotein carrier. Thus, to determine whether dicatechol (e.g., microglial inhibitor nordihydroguaiaretic acid) blocks Aβ-induced neurotoxicity the Frautschy model was used. […] Each group consisted of six rats fed either a control or an NDGA supplemented diet (Table VII).
Rats were trained on a radial eight-arm maze as described previously. After they achieved 0-2 error level, they underwent surgery for implantation of the cannulae and osmotic pumps. Twenty-four hours after surgery, they were started on the dietary treatment.
Time and error scores from six trials for each experimental group were subjected to analysis of variance (ANOVA). Tucky-Kramer test for multiple comparisons was used as a posthoc test. Performance in the memory task was analyzed separately over all six trials.

Structure (SMILES): C[C@H](Cc1ccc(O)c(O)c1)[C@@H](C)Cc1ccc(O)c(O)c1 [NDGA, 1,4-bis (3,4-Dihydroxyphenyl)-2,3-dimethylbutane]
- median lifespan after start of treatment (G93A-SOD1 mice [1]; 10 mg/kg i.p. 5 days/week from 90 D): 37 D
- extension of lifespan after the start of treatment (G93A-SOD1 mice [1]; 10 mg/kg i.p. from 90 D): 20%
- median lifespan (G93A-SOD1 mice [1]; 10 mg/kg i.p. from 90 D): 127 D
- reduction in rate of motor functional decline relative to vehicle (G93A-SOD1 mice [1]; 10 mg/kg i.p. from 90 D, linear regression 100-120D): 38%
- slope of motor functional decline (G93A-SOD1 mice [1]; 10 mg/kg i.p., 100-120D): 2.96 % decrease/day
- rotarod performance (G93A-SOD1 mice [1]; i.p. administration): not significantly affected
- RR (survival, logrank analysis) (G93A-SOD1 mice [2]; 2500 ppm in chow from 90 D): 0.27
- median age of death (G93A-SOD1 mice [2]; 2500 ppm in chow from 90 D): 140 D
- pathological effects at necropsy (G93A-SOD1 mice [2]; mouse, in vivo): no pathological effects of the drug were observed
- weight changes (G93A-SOD1 mice [2]; mouse, in vivo): No weight changes were observed
- extension of paralytic phase (onset of paralysis to death) (G93A-SOD1 mice [2]; oral): approximately 40%
- rotarod performance (G93A-SOD1 mice [2]; oral): significantly improved rotarod performance
- Onset of frank paralysis, mean ± SD (G93A-SOD1 mice [2]; oral NDGA): 121 ± 7.1 D
- Onset of frank paralysis, median (G93A-SOD1 mice [2]; oral NDGA): 120 D
- Time between onset and death, mean ± SD (G93A-SOD1 mice [2]; oral NDGA): 16.5 ± 7.9 D
- Time between onset and death, median (G93A-SOD1 mice [2]; oral NDGA): 14 D
- extension of median lifespan (G93A-SOD1 mice [2]; oral, from 90 D): 13 D
- prolongation of lifespan after start of treatment (G93A-SOD1 mice [2]; oral, from 90 D): 32%
- water solubility (Water solubility): limited water solubility
- F4/80-positive microglia, lumbar spinal cord (G93A-SOD1 mice [3]; 120 D of age): diminished the number of F4/80-positive microglia
- astrogliosis (GFAP-positive astrocytes), lumbar spinal cord (G93A-SOD1 mice [3]; 120 D old mice): significantly diminished astrogliosis; also recorded: significantly decreased the number of GFAP-positive astrocytes
- LD50 (rats): more than 2000 mg/kg
- working memory errors and latency (Aβ-induced neurotoxicity; day 25): significant decrease in the number of working memory errors and latency
- reference errors (Aβ-induced neurotoxicity; day 25 and day 30, not significant): suppressed reference errors
